Laboratory results from ChEMBL document CHEMBL1909046, “DrugMatrix in vitro pharmacology data”.
pIC50, pKi: −log10 of the molar value.

Legend:
D(1A) dopamine receptor = D(1A) dopamine receptor (Homo sapiens, UniProt P21728); assay: DRUGMATRIX: Dopamine D1 radioligand binding (ligand: [3H] SCH-23390); format: cell membranes, CHO, Membrane; details: Not Active = under 50% inhibition at 10 µM; for IC50 / Ki: cho
[1] = DRUGMATRIX: GABAA, Chloride Channel, TBOB radioligand binding (ligand: [3H] TBOB); format: cell membranes, Rattus norvegicus, Wistar, Cerebral cortex, Membrane; details: Not Active = under 50% inhibition at 10 µM
[2] = molecular target: Receptor tyrosine-protein kinase erbB-2 (Homo sapiens, UniProt P04626); assay: biochemical; format: cell-based, Insect cells; details: for IC50 / Ki: insect cells;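 as to all read-outs here: inhibition of HER2 kinase enzyme activity, measured with Poly(Glu:Tyr) as the phosphorylation substrate; in other assays of this panel Not Active means under 50% inhibition at 10 µM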
Caspase-1 = molecular target: T1, Caspase-1 (Homo sapiens, UniProt P29466); design: species or system Escherichia coli;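 also: Caspase-1 enzyme inhibition assay with a peptide substrate; in other assays of this panel Not Active means under 50% inhibition at 10 µM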
T1 sequence (P29466 whole entry): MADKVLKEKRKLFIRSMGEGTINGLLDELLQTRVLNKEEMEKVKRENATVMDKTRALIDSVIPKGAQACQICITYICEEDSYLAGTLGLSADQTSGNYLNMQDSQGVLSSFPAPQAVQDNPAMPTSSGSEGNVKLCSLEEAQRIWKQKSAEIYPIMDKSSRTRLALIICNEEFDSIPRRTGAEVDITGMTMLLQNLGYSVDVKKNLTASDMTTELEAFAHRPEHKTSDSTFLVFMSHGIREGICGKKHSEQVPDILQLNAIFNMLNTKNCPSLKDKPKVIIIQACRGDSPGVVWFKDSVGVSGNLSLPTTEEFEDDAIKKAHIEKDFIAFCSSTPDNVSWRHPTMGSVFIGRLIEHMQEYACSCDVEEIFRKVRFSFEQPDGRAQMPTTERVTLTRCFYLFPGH

[3] = molecular target: T2, Alpha-2A adrenergic receptor (Homo sapiens, UniProt P08913); format: cell membranes, Sf9, Membrane; details: for IC50 / Ki: sf9; for pIC50: read-out: IC50; for pKi: read-out: Ki; as to all read-outs here: in other assays of this panel Not Active means under 50% inhibition at 10 µM
T2 sequence (P08913 whole entry): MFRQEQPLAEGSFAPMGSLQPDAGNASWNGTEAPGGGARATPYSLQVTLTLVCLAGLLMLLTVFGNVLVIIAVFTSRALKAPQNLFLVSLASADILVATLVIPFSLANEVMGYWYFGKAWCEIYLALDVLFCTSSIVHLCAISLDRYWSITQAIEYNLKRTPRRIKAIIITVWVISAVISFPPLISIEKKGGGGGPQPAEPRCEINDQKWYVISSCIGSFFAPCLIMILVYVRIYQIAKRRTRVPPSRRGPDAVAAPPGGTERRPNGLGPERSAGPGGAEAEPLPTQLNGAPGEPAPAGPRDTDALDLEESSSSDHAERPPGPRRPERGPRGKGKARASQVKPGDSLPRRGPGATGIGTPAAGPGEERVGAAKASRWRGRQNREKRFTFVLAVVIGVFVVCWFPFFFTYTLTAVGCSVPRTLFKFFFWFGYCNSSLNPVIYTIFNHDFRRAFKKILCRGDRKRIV

Chain of D(1A) dopamine receptor (P21728 whole entry): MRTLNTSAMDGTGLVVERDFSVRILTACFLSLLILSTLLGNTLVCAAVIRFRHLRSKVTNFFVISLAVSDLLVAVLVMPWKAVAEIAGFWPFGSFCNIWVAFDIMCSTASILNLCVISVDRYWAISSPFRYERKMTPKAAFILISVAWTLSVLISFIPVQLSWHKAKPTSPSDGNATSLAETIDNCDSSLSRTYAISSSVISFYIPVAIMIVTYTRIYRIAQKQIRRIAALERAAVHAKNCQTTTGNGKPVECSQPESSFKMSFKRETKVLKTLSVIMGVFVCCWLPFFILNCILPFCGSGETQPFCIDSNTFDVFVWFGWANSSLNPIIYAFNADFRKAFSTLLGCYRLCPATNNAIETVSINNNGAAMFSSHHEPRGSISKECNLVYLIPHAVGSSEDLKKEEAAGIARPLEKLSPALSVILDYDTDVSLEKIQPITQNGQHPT

Molecule | IC50 (D(1A) dopamine receptor) | IC50 [1] | Ki [1] | IC50 [2] | IC50 (Caspase-1) | IC50 [3] | pIC50 [3] | pKi [3] | Ki (D(1A) dopamine receptor) | Ki [2] | Ki (Caspase-1) | Ki [3] | pIC50 (D(1A) dopamine receptor; read-out: IC50) | pKi (D(1A) dopamine receptor; read-out: Ki) | pIC50 ([2]; read-out: IC50)
CCCOc1ccc(C(=O)OCCN(CC)CC)cc1N [PROPARACAINE] | Not Active | Not Active | Not Active | Not Active | Not Active | Not Active |  |  |  |  |  |  |  |  | 
CC(=O)[C@H]1[C@H](C#N)C[C@H]2[C@@H]3CC=C4C[C@@H](O)CC[C@]4(C)[C@H]3CC[C@@]21C [PREGNENOLONE CARBONITRILE] | Not Active | Not Active | Not Active | Not Active | Not Active | Not Active |  |  |  |  |  |  |  |  | 
CN(C)CC[C@@H](c1ccc(Cl)cc1)c1ccccn1 [DEXCHLORPHENIRAMINE] | Not Active | Not Active | Not Active | Not Active | Not Active |  | 4.69 | 5.12 |  |  |  |  |  |  | 
C[C@@H]1O[C@@H](O[C@@H]2C=C3CC[C@@H]4[C@H](CC[C@]5(C)[C@@H](c6ccc(=O)oc6)CC[C@]45O)[C@@]3(C)CC2)[C@H](O)[C@H](O)[C@H]1O [PROSCILLARIDIN] | Not Active | Not Active | Not Active | Not Active | Not Active | Not Active |  |  |  |  |  |  |  |  | 
CN(C)[C@@H]1C(O)=C(C(N)=O)C(=O)[C@@]2(O)C(O)=C3C(=O)c4c(O)ccc(Cl)c4[C@@](C)(O)[C@H]3C[C@@H]12 [CHLORTETRACYCLINE] | Not Active | Not Active | Not Active | Not Active | Not Active | Not Active |  |  |  |  |  |  |  |  | 
Nc1ccn([C@@H]2O[C@H](CO)[C@@H](O)[C@@H]2O)c(=O)n1 [CYTARABINE] | Not Active | Not Active | Not Active | Not Active | Not Active | Not Active |  |  |  |  |  |  |  |  | 
CC(C)c1cccc(C(C)C)c1O [PROPOFOL] | Not Active | Not Active | Not Active | Not Active | Not Active | Not Active |  |  |  |  |  |  |  |  | 
NYSTATIN | Not Active | Not Active | Not Active | Not Active | Not Active | Not Active |  |  | Not Active | Not Active | Not Active | Not Active |  |  | 
Cc1cc2c(OCC(CNC(C)(C)C)OC(=O)c3ccccc3)cccc2[nH]1 (stereo not given) [BOPINDOLOL] | Not Active | Not Active | Not Active | Not Active | Not Active | Not Active |  |  |  |  |  |  |  |  | 
CC(=O)Oc1ccc(C(c2ccc(OC(C)=O)cc2)c2ccccn2)cc1 [BISACODYL] | Not Active | Not Active | Not Active | Not Active | Not Active | Not Active |  |  |  |  |  |  |  |  | 
C[C@@H](CO)NC(=O)[C@@H]1C=C2c3cccc4[nH]cc(c34)C[C@H]2N(C)C1 [ERGONOVINE] |  | Not Active | Not Active | Not Active | Not Active |  | 5.77 | 6.20 |  |  |  |  | 5.23 | 5.53 | 
CC(=O)O[C@H]1C(=O)[C@@]2(C)[C@H]([C@H](OC(=O)c3ccccc3)[C@]3(O)C[C@H](OC(=O)[C@H](O)[C@@H](NC(=O)c4ccccc4)c4ccccc4)C(C)=C1C3(C)C)[C@]1(OC(C)=O)CO[C@@H]1C[C@@H]2O [PACLITAXEL] | Not Active | Not Active | Not Active |  | Not Active | Not Active |  |  |  |  |  |  |  |  | 4.95
Nc1ccn([C@@H]2O[C@H](CO)[C@@H](O)C2(F)F)c(=O)n1 [GEMCITABINE] | Not Active | Not Active | Not Active | Not Active | Not Active | Not Active |  |  |  |  |  |  |  |  | 
CCC1(CCC(C)C)C(=O)NC(=O)NC1=O [AMOBARBITAL] | Not Active | Not Active | Not Active | Not Active | Not Active | Not Active |  |  |  |  |  |  |  |  | 
O=C(O)c1cccnc1Nc1cccc(C(F)(F)F)c1 [NIFLUMIC ACID] | Not Active | Not Active | Not Active | Not Active | Not Active | Not Active |  |  |  |  |  |  |  |  | 
Cn1c(=O)c2[nH]cnc2n(C)c1=O.Cn1c(=O)c2[nH]cnc2n(C)c1=O.NCCN [AMINOPHYLLINE] | Not Active | Not Active | Not Active | Not Active | Not Active | Not Active |  |  |  |  |  |  |  |  | 
GENTAMICIN | Not Active | Not Active | Not Active | Not Active | Not Active | Not Active |  |  | Not Active | Not Active | Not Active | Not Active |  |  | 
CCCNCC(O)COc1ccccc1C(=O)CCc1ccccc1 (stereo not given) [PROPAFENONE] | Not Active | Not Active | Not Active | Not Active | Not Active | Not Active |  |  |  |  |  |  |  |  | 
C=CCc1ccc(O)c(OC)c1 [EUGENOL] | Not Active | Not Active | Not Active | Not Active | Not Active | Not Active |  |  |  |  |  |  |  |  | 
COc1ccc2[nH]cc(CCNC(C)=O)c2c1 [MELATONIN] | Not Active | Not Active | Not Active | Not Active | Not Active | Not Active |  |  |  |  |  |  |  |  | 
CC(C)NCC(O)COc1cccc2[nH]ccc12 (stereo not given) [PINDOLOL] | Not Active | Not Active | Not Active | Not Active | Not Active | Not Active |  |  |  |  |  |  |  |  | 
O=C(N/N=C/c1ccc([N+](=O)[O-])o1)c1cc([N+](=O)[O-])cc([N+](=O)[O-])c1O [NIFURSOL] | Not Active | Not Active | Not Active | Not Active | Not Active | Not Active |  |  |  |  |  |  |  |  | 
CC(C)NNC(=O)c1ccncc1 [IPRONIAZID] | Not Active | Not Active | Not Active | Not Active | Not Active | Not Active |  |  |  |  |  |  |  |  | 
COc1cc([C@@H]2c3cc4c(cc3[C@@H](O[C@@H]3O[C@@H]5CO[C@@H](C)O[C@H]5[C@H](O)[C@H]3O)[C@H]3COC(=O)[C@H]23)OCO4)cc(OC)c1O [ETOPOSIDE] | Not Active | Not Active | Not Active | Not Active | Not Active | Not Active |  |  |  |  |  |  |  |  | 
CC(C(=O)O)c1cccc(Oc2ccccc2)c1 (stereo not given) [FENOPROFEN] | Not Active | Not Active | Not Active | Not Active | Not Active | Not Active |  |  |  |  |  |  |  |  | 
COc1ccc2c3c1O[C@H]1C[C@@H](O)C=C[C@@]31CCN(C)C2 [GALANTAMINE] | Not Active | Not Active | Not Active | Not Active | Not Active | Not Active |  |  |  |  |  |  |  |  | 
O=C(O)CCNC(=O)c1ccccc1 [BETAMIPRON] | Not Active | Not Active | Not Active | Not Active | Not Active | Not Active |  |  |  |  |  |  |  |  | 
C#C[C@]1(OC(C)=O)CC[C@H]2[C@@H]3CCC4=C[C@@H](OC(C)=O)CC[C@@H]4[C@H]3CC[C@@]21C [ETHYNODIOL DIACETATE] | Not Active | Not Active | Not Active | Not Active | Not Active | Not Active |  |  |  |  |  |  |  |  | 
CN1[C@@H]2CC[C@H]1C[C@@H](OC(=O)C(CO)c1ccccc1)C2 (stereo not given in full) [ATROPINE] | Not Active | Not Active | Not Active | Not Active | Not Active | Not Active |  |  |  |  |  |  |  |  | 
